Reference: US7144710B2, “Method for detecting inflammation and inflammatory conditions” (Trustees of Dartmouth College, priority 2000, dated 2006)

Legend:
[1] = system: monocyte surface CD163; assay: Shedding of monocyte surface CD163 in vitro; assay type: cell-based, human; conditions: for shedding of surface CD163 from cells pre-treated with glucocorticoids plus LPS: subsequent treatment with the agent
Description: Therefore, like PMA, LPS is capable of inducing CD163 shedding. LPS-induced shedding occurred even with monocytes that had been cultured for 48 hours in DEX and thus had 5- to 10-fold higher levels of surface CD163 than freshly isolated monocytes. […] This LPS-conferred resistance to subsequent LPS-induced shedding of CD163 is similar to reported endotoxin pre-conditioning for resistance to subsequent inflammatory insults.

[2] = system: soluble CD163 in plasma; assay: Soluble CD163 in plasma of healthy volunteers after LPS bolus infusion (ELISA); assay type: in vivo, human; conditions: 4 ng/kg bolus infusion of LPS
Description: In order to provide for use of CD163 as a biomarker of inflammation, a method for detection of CD163 in biological samples such as plasma was developed. The assay of detection is an ELISA assay using a CD163-specific antibody such as MAC2-158 or MAC2-48 as the CD163 capture antibody and the commercially available biotinylated antibody RM3/1 as the CD163 detection antibody. Briefly, plates were coated with purified MAC2-158 or MAC2-48 antibody and incubated overnight at 4 C. After washing, non-specific binding was blocked by adding blocking buffer to each plate well and incubating for 30 minutes at room temperature. […]
In order to more closely mimic the in vivo inflammatory response to infection in a more controlled setting than the cardiac patients described above, healthy volunteers were administered a 4 ng/kg bolus infusion of LPS and monitored the levels of soluble CD163 in plasma. […] Levels of CD163 in plasma were measured using the assay of the present invention. […] Changes in levels of known acute phase proteins, glucocorticoids, and pro- and anti-inflammatory cytokines were also monitored in order to determine if their levels correlated with the appearance of soluble CD163 in plasma. […]
ELISA plates were coated, 100 μl per well, with 5 μg/ml purified MAC2-158 (coating buffer of 0.1 M NaHCO30.5 M NaCl, adjusted to pH 8.4 with HCl). […] The plates were read on a spectrophotometer at […].

[3] = system: CRP, TNFA, IL-6, IL-10, cortisol in plasma; assay: Plasma acute phase proteins, glucocorticoids and cytokines of healthy volunteers after LPS bolus infusion; assay type: in vivo, human; conditions: post LPS administration
Description: In order to more closely mimic the in vivo inflammatory response to infection in a more controlled setting than the cardiac patients described above, healthy volunteers were administered a 4 ng/kg bolus infusion of LPS and monitored the levels of soluble CD163 in plasma. […] Plasma samples were taken at baseline (before administration of LPS), and then at various time points after LPS infusion up to 72 hours after infusion initiation. Levels of CD163 in plasma were measured using the assay of the present invention. […] In the one volunteer where levels had declined at […], levels remained elevated up to 4 hours before returning to baseline levels by 8 hours. Changes in levels of known acute phase proteins, glucocorticoids, and pro- and anti-inflammatory cytokines were also monitored in order to determine if their levels correlated with the appearance of soluble CD163 in plasma. […] Plasma levels of TNFA, IL-6 and IL-10, all known to be produced following LPS infusion, peaked at 1, 2, and 4 hours post LPS administration, respectively. […] Therefore, CD163 acts as an early signaling event in the inflammatory response cascade.

[4] = system: CD163 expression; assay: Monocytes cultured with LPS and/or DEX, immunofluorescence detection of surface CD163; assay type: cell-based, human; conditions: monocytes cultured with LPS alone
Description: In addition to testing the effects of cytokines in combination with glucocorticoids on levels of CD163, studies were performed to examine the effects of glucocorticoids in combination with lipopolysaccharide (LPS). […] However, when monocytes were cultured for 48 hours with DEX combined with LPS, their was a synergistic increase in CD163 expression, where the effect of DEX alone was increased by more than 2-fold when LPS treatment was added.

[5] = system: monocyte CD163 expression; assay: CD163 expression on monocytes of cultured PBMCs, staining and flow cytometric analysis; assay type: cell-based, human; conditions: for increase of monocyte CD163 expression: PBMCs treated 24 hours, agent alone, 200 nM DEX, vs control media, p<0.01; for CD163 expression of cytokine given in combination with DEX over DEX treatment alone: PBMCs 24 hours
Description: To assess whether different cytokines could influence CD163 expression, freshly isolated PBMCs were cultured for 24 hours in the presence of various cytokines, 200 nM DEX (as a positive control for CD163 upregulation), or control media. The cells were then subjected to staining and flow cytometric analysis.
For cytokine treatment studies, isolated PBMCs were suspended in hepes buffered RPMI 1640/0.05% gentamicin/10% FBS at a concentration of 2.0×10^6 to 2.5×10^6 cells/ml and cultured in 96 well plates at 37° C. and 5% CO2 in the presence of various mediators (Table 1). Mononuclear cells were stained for flow cytometric analysis after 24 hours in culture unless otherwise indicated. This enhanced cell recovery because monocytes, which initially adhere to plastic vessels, transiently detach from culture wells at 24–48 hours.
All staining procedures were performed at 4 C. Briefly, cultured PBMCs were incubated with normal human IgG (6 mg/ml) to block Fc receptor-specific binding of mAbs and 30 μg/ml of the isotype control mAb P3 or a saturating amount of mAb MAC2-48 (20 μg/ml) for one hour. Cells were then washed and stained for one hour with 17.5 μg/ml FITC labeled goat F(ab=)2 anti-mouse Ig. The cells were again washed and fixed with 1% methanol free formalin.
Cell fluorescence of monocytes gated using forward and side scatter was analyzed using a Becton Dickenson FACScan (Franklin Lakes, N.J.). Mean fluorescence intensity (MFI) was calculated by subtracting the MFI of the P3 stained mononuclear cells from the MFI of the corresponding Mac 2-48 stained cells.

[6] = system: monocyte surface CD163; conditions: Droste et al. 1999; blocked by protease inhibitors; cited from earlier work
[7] = system: CD163; assay: Western blots of monocyte lysates; assay type: cell-based, human

## lipopolysaccharide [LPS]
[1]; in vitro
  time to shedding of monocyte surface CD163: ≤ 2 h
[1]
  shedding of surface CD163 from cells pre-treated with glucocorticoids plus LPS: largely resistant to shedding
[2]
  increase of soluble CD163 levels in plasma compared to baseline: ≤ 7 fold
[3]
  time at which plasma cortisol began to increase: 4 h
  time by which plasma CRP increased: ≤ 8 h
  time of peak of plasma CRP: 24 h
  time of peak of plasma IL-6: 2 h
  time of peak of plasma IL-10: 4 h
  time of peak of plasma TNFA: 1 h
  time of peak of plasma cortisol: 6 h
[4]
  CD163 detected on monocyte surface: low levels of CD163

## C[C@@H]1C[C@H]2[C@@H]3CCC4=CC(=O)C=C[C@]4(C)[C@@]3(F)[C@@H](O)C[C@]2(C)[C@@]1(O)C(=O)CO [DEX]
[5]
  increase of monocyte CD163 expression: ~7 fold

## CCCCCCCCCCCCCC(=O)O[C@@H]1[C@@H](C)[C@@]2(O)[C@@H](C=C(CO)C[C@]3(O)C(=O)C(C)=C[C@@H]23)[C@@H]2C(C)(C)[C@]12OC(C)=O [PMA]
[1]
  shedding of surface CD163 from cells pre-treated with glucocorticoids plus LPS: remained sensitive
[6]
  shedding of surface CD163 from monocytes in culture: rapid shedding

## GM-CSF
[5]
  CD163 expression of cytokine given in combination with DEX over DEX treatment alone: does not enhance CD163 expression

B1: IL-10: cytokine, originally known as cytokine synthesis inhibitory factor (protein, UniProt P22301 19-178, looked up)
Interleukin-10: SPGQGTQSENSCTHFPGNLPNMLRDLRDAFSRVKTFFQMKDQLDNLLLKESLLEDFKGYLGCQALSEMIQFYLEEVMPQAENQDPDIKAHVNSLGENLKTLRLRLRRCHRFLPCENKSKAVEQVKNAFNKLQEKGIYKAMSEFDIFINYIEAYMTMKIRN
[5]
  CD163 expression of cytokine given in combination with DEX over DEX treatment alone: significantly increased CD163 expression
  increase of monocyte CD163 expression: approximately 4 fold
[7]
  CD163 expression by western blot: increased expression of CD163

B2: IL-4: cytokine interleukin-4 (protein, UniProt P05112 25-153, looked up)
Interleukin-4: HKCDITLQEIIKTLNSLTEQKTLCTELTVTDIFAASKNTTEKETFCRAATVLRQFYSHHEKDTRCLGATAQQFHRHKQLIRFLKRLDRNLWGLAGLNSCPVKEANQSTLENFLERLKTIMREKYSKCSS
[5]
  CD163 expression of cytokine given in combination with DEX over DEX treatment alone: does not enhance CD163 expression
